Measurements published in ChEMBL document CHEMBL1201862, “PubChem BioAssay data set” (2004).
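Five compound concentrations were applied to cells in 96-well plates for 48 hours; endpoints were derived by simple linear interpolation of the resulting dose-response curve. Here, GI50 denotes the concentration required for 50% inhibition of growth.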 Active and inactive are the calls of the source. Rule as the data show it: active = GI50 up to about 1.1 µM and inactive = higher.

How the values were obtained:
Experiment in all cases: inhibition of tumour cell growth, NCI panel, 48 h
[1] = tested on: UO-31
[2] = tested on: RXF 393
[3] = tested on: HT-29
[4] = tested on: M14
[5] = tested on: SNB-75
[6] = tested on: SF-295
[7] = tested on: UACC-257
[8] = tested on: KM-20L2
[9] = tested on: XF498
[10] = tested on: SNB-78
[11] = tested on: NCI-H460
[12] = tested on: OVCAR-8
[13] = tested on: DMS-114
[14] = tested on: LXFL 529
[15] = tested on: DLD-1
[16] = tested on: OVCAR-4
[17] = tested on: OVCAR-3
[18] = tested on: HCC 2998
[19] = tested on: A549
[20] = tested on: COLO 205
[21] = tested on: NCI-H226
[22] = tested on: HOP-92
[23] = tested on: Malme-3M
[24] = tested on: KM12
[25] = tested on: ACHN
[26] = tested on: LOX IMVI
[27] = tested on: TK-10
[28] = tested on: SK-MEL-28
[29] = tested on: MOLT-4
[30] = tested on: OVCAR-5
[31] = tested on: SF-539
[32] = tested on: UACC-62
[33] = tested on: HOP-18
[34] = tested on: SNB-19
[35] = tested on: DMS-273
[36] = tested on: SK-MEL-5
[37] = tested on: HOP-62
[38] = tested on: 786-0
[39] = tested on: NCI-H23
[40] = tested on: M19-MEL
[41] = tested on: U-251
[42] = tested on: SK-OV-3
[43] = tested on: SK-MEL-2
[44] = tested on: HCT-116
[45] = tested on: CAKI-1
[46] = tested on: HCT-15
[47] = tested on: SN12C
[48] = tested on: SW-620
[49] = tested on: NCI-H522
[50] = tested on: RPMI-8226
[51] = tested on: EKVX
[52] = tested on: SF-268
[53] = tested on: MCF7
[54] = tested on: IGROV-1
[55] = tested on: CCRF-CEM
[56] = tested on: SR
[57] = tested on: MDA-MB-231
[58] = tested on: HL-60
[59] = tested on: MDA-N
[60] = tested on: A498
[61] = tested on: PC-3
[62] = tested on: MDA-MB-435
[63] = tested on: K562
[64] = tested on: T47D
[65] = tested on: BT-549
[66] = tested on: DU-145
[67] = tested on: Hs-578T
[68] = tested on: NCI/ADR-RES

SMILES: CCOC(=O)C(c1ccsc1)P(=O)(OCC)OCC (centres undefined)
- GI50 [1]: 15 µM (inactive)
- GI50 [2]: 13.1 µM (inactive)
- GI50 [3]: 15.9 µM (inactive)
- GI50 [4]: 12.9 µM (inactive)
- GI50 [5]: 24.1 µM (inactive)
- GI50 [6]: 17.3 µM (inactive)
- GI50 [7]: 15.4 µM (inactive)
- GI50 [8]: 14.5 µM (inactive)
- GI50 [9]: 20.9 µM (inactive)
- GI50 [10]: 12.6 µM (inactive)
- GI50 [11]: 14.9 µM (inactive)
- GI50 [12]: 16.6 µM (inactive)
- GI50 [13]: 13.8 µM (inactive)
- GI50 [14]: 12 µM (inactive)
- GI50 [15]: 12.8 µM (inactive)
- GI50 [16]: 28.7 µM (inactive)
- GI50 [17]: 13.7 µM (inactive)
- GI50 [18]: 19.5 µM (inactive)
- GI50 [19]: 22.4 µM (inactive)
- GI50 [20]: 13.3 µM (inactive)
- GI50 [21]: 18.4 µM (inactive)
- GI50 [22]: 24.3 µM (inactive)
- GI50 [23]: 23.2 µM (inactive)
- GI50 [24]: 13.4 µM (inactive)
- GI50 [25]: 19.6 µM (inactive)
- GI50 [26]: 6.5 µM (inactive)
- GI50 [27]: 25.4 µM (inactive)
- GI50 [28]: 15.1 µM (inactive)
- GI50 [29]: > 100 µM (inactive)
- GI50 [30]: 23.1 µM (inactive)
- GI50 [31]: 14.2 µM (inactive)
- GI50 [32]: 8.22 µM (inactive)
- GI50 [33]: 28.3 µM (inactive)
- GI50 [34]: 21.5 µM (inactive)
- GI50 [35]: 13.2 µM (inactive)
- GI50 [36]: 15.7 µM (inactive)
- GI50 [37]: 28.1 µM (inactive)
- GI50 [38]: 16.3 µM (inactive)
- GI50 [39]: 16 µM (inactive)
- GI50 [40]: 11.2 µM (inactive)
- GI50 [41]: 17.9 µM (inactive)
- GI50 [42]: 23 µM (inactive)
- GI50 [43]: 20 µM (inactive)
- GI50 [44]: 11.5 µM (inactive)
- GI50 [45]: 14.1 µM (inactive)
- GI50 [46]: 15 µM
- GI50 [47]: 13.3 µM (inactive)
- GI50 [48]: 15.4 µM (inactive)
- GI50 [49]: 3.89 µM (inactive)
- GI50 [50]: 9.4 µM (inactive)
- GI50 [51]: 23.9 µM (inactive)
- GI50 [52]: 23.2 µM (inactive)

SMILES: O=C1C(c2ccc([N+](=O)[O-])cc2)=C(Cl)C(=O)c2c(O)cccc21
- GI50 [1]: 13.5 µM (inactive)
- GI50 [2]: 14.7 µM (inactive)
- GI50 [53]: 18.8 µM (inactive)
- GI50 [54]: 26.4 µM (inactive)
- GI50 [3]: 21 µM (inactive)
- GI50 [4]: 21 µM (inactive)
- GI50 [5]: 35.3 µM (inactive)
- GI50 [55]: 4.56 µM (inactive)
- GI50 [6]: > 54.1 µM (inactive)
- GI50 [7]: 18.4 µM (inactive)
- GI50 [56]: > 100 µM (inactive)
- GI50 [9]: 10.6 µM (inactive)
- GI50 [57]: 17.1 µM (inactive)
- GI50 [10]: 25.5 µM (inactive)
- GI50 [11]: 52.8 µM (inactive)
- GI50 [58]: 4.12 µM (inactive)
- GI50 [59]: 20.2 µM (inactive)
- GI50 [12]: 27.5 µM (inactive)
- GI50 [13]: 7.31 µM (inactive)
- GI50 [14]: 9.51 µM (inactive)
- GI50 [15]: 11 µM (inactive)
- GI50 [16]: 17.3 µM (inactive)
- GI50 [17]: 17.7 µM (inactive)
- GI50 [18]: 52.6 µM (inactive)
- GI50 [60]: 25.3 µM (inactive)
- GI50 [19]: 97.7 µM (inactive)
- GI50 [20]: 17.3 µM (inactive)
- GI50 [61]: 26.1 µM (inactive)
- GI50 [21]: > 43.2 µM (inactive)
- GI50 [22]: 19 µM (inactive)
- GI50 [23]: 19.6 µM (inactive)
- GI50 [24]: 25.6 µM (inactive)
- GI50 [25]: 18.5 µM (inactive)
- GI50 [26]: 17.3 µM (inactive)
- GI50 [62]: 17.7 µM (inactive)
- GI50 [63]: 11.4 µM (inactive)
- GI50 [27]: 20.2 µM (inactive)
- GI50 [28]: 18.9 µM (inactive)
- GI50 [29]: 3.66 µM (inactive)
- GI50 [30]: 40.7 µM (inactive)
- GI50 [31]: 20.2 µM (inactive)
- GI50 [64]: 20.9 µM (inactive)
- GI50 [32]: 19.7 µM (inactive)
- GI50 [65]: 17.1 µM (inactive)
- GI50 [33]: 5.05 µM (inactive)
- GI50 [34]: 22.5 µM (inactive)
- GI50 [35]: 28 µM (inactive)
- GI50 [66]: 20.7 µM (inactive)
- GI50 [36]: 23.4 µM (inactive)
- GI50 [67]: 26.8 µM (inactive)
- GI50 [37]: 34.4 µM (inactive)
- GI50 [38]: 15.5 µM (inactive)
- GI50 [39]: 18.1 µM (inactive)
- GI50 [40]: 18.2 µM (inactive)
- GI50 [41]: 17.9 µM (inactive)
- GI50 [42]: 50.8 µM (inactive)
- GI50 [43]: 17.9 µM (inactive)
- GI50 [44]: 27.9 µM (inactive)
- GI50 [45]: 23.7 µM (inactive)
- GI50 [46]: 25.5 µM
- GI50 [47]: 22.3 µM (inactive)
- GI50 [48]: 4.18 µM (inactive)
- GI50 [49]: 7.87 µM (inactive)
- GI50 [50]: 41.3 µM (inactive)
- GI50 [51]: 20.5 µM (inactive)
- GI50 [52]: 23.1 µM (inactive)
- GI50 [68]: 28.4 µM (inactive)
